Results reported in ChEMBL document CHEMBL5053549, “Discovery of Potent and Novel Dual PARP/BRD4 Inhibitors for Efficient Treatment of Pancreatic Cancer” (J Med Chem, 2021).
Activity calls are given as the source filed them. The calls are words filed in the database; no cut-off is given here.

What was measured:
[1] = tested on: Mus musculus; assay: Toxicity in BALB/c mouse xenografted with human SW1990 cells assessed as effect on body weight at 45 mg/kg, ip administered for 28 consecutive days; type: organism-based; conditions: in vivo, 672 h, time 28 day
[2] = biological target: T1, Bromodomain-containing protein 4 (Homo sapiens, UniProt O60885); assay: Inhibition of recombinant BRD4 (unknown origin) at 1 uM incubated for 120 mins by TR-FRET assay relative to control
[3] = tested on: Mus musculus; assay: Inhibition of homologous recombinant repair in human SW1990 cells xenografted in BALB/c mouse assessed as reduction in olaparib-induced BRCA1 expression at 15 mg/kg, ip after 4 days by immunohistochemical analysis; type: functional, organism-based; conditions: time 4.0 day
[4] = tested on: Mus musculus; assay: Effect on cell cycle progression in human SW1990 cells xenografted in BALB/c mouse assessed as reduction in PLK1 expression at 45 mg/kg, ip after 4 days by Western blot analysis; type: functional, organism-based; conditions: time 4.0 day
[5] = tested on: SW1990; assay: Effect on cell cycle progression in human SW1990 cells assessed as reduction in PLK1 expression at 1 to 2 uM after 4 days by Q-PCR analysis; type: functional, cell-based; conditions: dose 1-2 µM, time 4.0 day
[6] = tested on: SW1990; assay: Induction of autophagy in human SW1990 cells assessed as increase in ATG5 expression at 1 to 2 uM incubated for 4 days by immunofluorescence assay; type: functional, cell-based; conditions: dose 1-2 µM, time 4.0 day
[7] = tested on: SW1990; assay: Effect on cell cycle progression in human SW1990 cells assessed as reduction in CCND1 expression at 1 to 2 uM after 4 days by Q-PCR analysis; type: functional, cell-based; conditions: dose 1-2 µM, time 4.0 day
[8] = biological target: T1, Bromodomain-containing protein 4; assay: Inhibition of recombinant BRD4 (unknown origin) incubated for 120 mins by TR-FRET assay
[9] = tested on: Mus musculus; assay: Inhibition of homologous recombinant repair in human SW1990 cells xenografted in BALB/c mouse assessed as reduction in FOXM1 expression at 45 mg/kg, ip after 4 days by immunohistochemical analysis; type: functional, organism-based; conditions: time 4.0 day
[10] = tested on: Mus musculus; assay: Toxicity in BALB/c mouse xenografted with human SW1990 cells assessed as spleen damage at 45 mg/kg, ip administered for 28 consecutive days by H and E staining based […] microscopic analysis; type: organism-based; conditions: in vivo, 672 h, time 28 day
[11] = tested on: SW1990; assay: Effect on cell cycle progression in human SW1990 cells assessed as reduction in CDK6 expression at 1 to 2 uM after 4 days by Western blot analysis; type: functional, cell-based; conditions: dose 1-2 µM, time 4.0 day
[12] = tested on: SW1990; assay: Effect on cell cycle progression in human SW1990 cells assessed as reduction in E2F2 expression at 1 to 2 uM after 4 days by Q-PCR analysis; type: functional, cell-based; conditions: dose 1-2 µM, time 4.0 day
[13] = tested on: SW1990; assay: Effect on cell cycle progression in human SW1990 cells assessed as reduction in PLK1 expression at 1 to 2 uM after 4 days by Western blot analysis; type: functional, cell-based; conditions: dose 1-2 µM, time 4.0 day
[14] = tested on: SW1990; assay: Induction of autophagy in human SW1990 cells xenografted in BALB/c mouse assessed as increase in beclin1 expression at 45 mg/kg, ip after 4 days by Western blot analysis; type: functional, organism-based; conditions: time 4.0 day
[15] = tested on: SW1990; assay: Induction of apoptosis in human SW1990 cells assessed as early apoptotic cells at 1 uM after 4 days by Annexin V-FITC and propidium iodide staining based flow cytometry (reference value: […]%); type: functional; conditions: time 4 day
[16] = tested on: SW1990; assay: Effect on cell cycle progression in human SW1990 cells assessed as reduction in E2F2 expression at 1 to 2 uM after 4 days by Western blot analysis; type: functional, cell-based; conditions: dose 1-2 µM, time 4.0 day
[17] = biological target: Bromodomain testis-specific protein (Homo sapiens, UniProt Q58F21); assay: Inhibition of recombinant BRDT BD2 (unknown origin) incubated for 120 mins by TR-FRET assay
[18] = biological target: Poly [ADP-ribose] polymerase 1 (Homo sapiens, UniProt P09874); assay: Inhibition of PARP1 expression in human SW1990 cells at 1 uM after 4 days by Q-PCR analysis; type: cell-based; conditions: time 4.0 day
[19] = tested on: SW1990; assay: Effect on cell cycle progression in human SW1990 cells assessed as reduction in Olaparib-induced PLK1 expression at 1 uM after 4 days in presence of Olaparib by Q-PCR analysis; type: functional, cell-based; conditions: time 4.0 day
[20] = tested on: SW1990; assay: Inhibition of homologous recombinant repair in human SW1990 cells assessed as reduction in FOXM1 expression at 4 uM after 4 days by Western blot analysis; type: functional, cell-based; conditions: time 4.0 day
[21] = tested on: SW1990; assay: Induction of DNA damage in human SW1990 cells assessed as tail DNA at 1 uM incubated for 4 days in presence of 3 uM Olaparib by comet assay; type: functional, cell-based; conditions: time 4.0 day
[22] = tested on: SW1990; assay: Inhibition of homologous recombinant repair in human SW1990 cells assessed as reduction in BRCA1 expression at 4 uM after 4 days by Q-PCR analysis; type: functional, cell-based; conditions: time 4.0 day
[23] = tested on: SW1990; assay: Inhibition of homologous recombinant repair in human SW1990 cells assessed as reduction in BRCA1 expression at 4 uM after 4 days by Western blot analysis; type: functional, cell-based; conditions: time 4.0 day
[24] = tested on: SW1990; assay: Inhibition of homologous recombinant repair in human SW1990 cells assessed as reduction in Olaparib-induced BRCA1 expression at 1 uM after 4 days in presence of Olaparib by Q-PCR analysis; type: functional, cell-based; conditions: time 4.0 day
[25] = tested on: Mus musculus; assay: In vivo inhibition of PARP1 expression in human […] cells xenografted in BALB/c mouse assessed as reversal of Olaparib-induced PARP1 accumulation at 15 mg/kg, ip administered for 28 consecutive days in presence of 45 mg/kg Olaparib by Western blot analysis; type: functional, organism-based; conditions: time 28.0 day
[26] = tested on: Mus musculus; assay: In vivo inhibition of BRD4 expression in human SW1900 cells xenografted in BALB/c mouse assessed as reversal of Olaparib-induced BRD4 accumulation at 15 mg/kg, ip administered for 28 consecutive days in presence of 45 mg/kg Olaparib by Q-PCR analysis; type: functional, organism-based; conditions: time 28.0 day
[27] = tested on: SW1990; assay: Effect on cell cycle progression in human SW1990 cells assessed as reduction in Olaparib-induced CCND1 expression at 1 uM after 4 days in presence of Olaparib by Western blot analysis; type: functional, cell-based; conditions: time 4.0 day
[28] = tested on: SW1990; assay: Effect on cell cycle progression in human SW1990 cells assessed as reduction in Olaparib-induced CDK6 expression at 1 uM after 4 days in presence of Olaparib by Q-PCR analysis; type: functional, cell-based; conditions: time 4.0 day
[29] = tested on: SW1990; assay: Effect on cell cycle progression in human SW1990 cells assessed as reduction in Olaparib-induced CDK6 expression at 1 uM after 4 days in presence of Olaparib by Western blot analysis; type: functional, cell-based; conditions: time 4.0 day
[30] = tested on: Mus musculus; assay: Toxicity in BALB/c mouse xenografted with human SW1990 cells assessed as lung damage at 15 mg/kg, ip administered for 28 consecutive days in presence of 45 mg/kg Olaparib; type: organism-based; conditions: in vivo, 672 h, time 28 day
[31] = tested on: SW1990; assay: Inhibition of homologous recombinant repair in human SW1990 cells assessed as reduction in Olaparib-induced Rad51 expression at 1 uM after 4 days in presence of Olaparib by Western blot analysis; type: functional, cell-based; conditions: time 4.0 day
[32] = tested on: SW1990; assay: Induction of DNA damage in human SW1990 cells assessed as increase in gammaH2AX at 4 uM incubated for 4 days by immunofluorescence assay; type: functional, cell-based; conditions: time 4.0 day
[33] = tested on: SW1990; assay: Inhibition of homologous recombinant repair in human SW1990 cells assessed as reduction in c-Myc expression at 4 uM after 4 days by Western blot analysis; type: functional, cell-based; conditions: time 4.0 day
[34] = tested on: SW1990; assay: Induction of autophagy in human SW1990 cells assessed as reduction in p62 expression at 4 uM incubated for 4 days by immunofluorescence assay; type: functional, cell-based; conditions: time 4.0 day

Chain of Poly [ADP-ribose] polymerase 1 (P09874 whole entry): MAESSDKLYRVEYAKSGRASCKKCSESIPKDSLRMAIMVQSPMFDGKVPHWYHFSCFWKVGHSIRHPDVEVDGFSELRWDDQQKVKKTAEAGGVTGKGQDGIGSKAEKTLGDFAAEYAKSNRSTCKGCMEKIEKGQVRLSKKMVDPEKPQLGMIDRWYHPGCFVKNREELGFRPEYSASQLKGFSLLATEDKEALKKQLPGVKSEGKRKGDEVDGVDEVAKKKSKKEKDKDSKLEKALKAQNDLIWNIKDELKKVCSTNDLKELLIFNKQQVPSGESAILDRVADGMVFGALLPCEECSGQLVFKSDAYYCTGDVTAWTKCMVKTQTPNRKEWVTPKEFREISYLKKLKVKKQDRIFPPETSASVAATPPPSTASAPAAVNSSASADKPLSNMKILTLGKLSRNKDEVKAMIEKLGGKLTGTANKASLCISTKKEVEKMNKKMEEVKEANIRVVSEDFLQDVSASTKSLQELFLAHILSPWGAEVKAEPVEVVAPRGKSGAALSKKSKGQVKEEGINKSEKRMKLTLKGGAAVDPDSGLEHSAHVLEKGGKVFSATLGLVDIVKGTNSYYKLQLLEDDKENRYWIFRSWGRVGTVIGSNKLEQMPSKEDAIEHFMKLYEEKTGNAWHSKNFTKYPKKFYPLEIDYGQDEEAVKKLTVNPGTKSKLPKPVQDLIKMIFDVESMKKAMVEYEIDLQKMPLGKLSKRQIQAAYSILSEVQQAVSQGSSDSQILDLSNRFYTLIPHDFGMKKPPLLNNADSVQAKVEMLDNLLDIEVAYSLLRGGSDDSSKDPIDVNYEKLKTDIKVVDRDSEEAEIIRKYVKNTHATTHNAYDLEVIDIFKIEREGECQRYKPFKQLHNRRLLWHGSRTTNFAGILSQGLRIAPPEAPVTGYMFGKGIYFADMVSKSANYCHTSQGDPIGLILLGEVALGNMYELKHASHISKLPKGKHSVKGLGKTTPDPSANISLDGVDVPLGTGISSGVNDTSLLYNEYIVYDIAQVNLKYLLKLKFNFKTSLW

CC[C@@H]1C(=O)N(C)c2cnc(N(C)c3ccc(-c4nc5c(C(N)=O)cccc5[nH]4)cc3OC)nc2N1C1CCCC1
Activity [1]: Non-Toxic | inhibition [2]: 76.2% | inhibition [3]: Active | Activity [4]: Active | Activity [5]: Active | Activity [6]: Active | Activity [7]: Active | IC50 [8]: 101 nM | inhibition [9]: Active | Activity [10]: Non-Toxic | Activity [11]: Active | Activity [12]: Active | Activity [13]: Active | Activity [14]: Active | Activity [15]: 1.71% | Activity [16]: Active | IC50 [17]: 1400 nM | inhibition [18]: Active

Cc1sc2c(c1C)C(c1ccc(Cl)cc1)=N[C@@H](CC(=O)OC(C)(C)C)c1nnc(C)n1-2
Activity [19]: Active | inhibition [20]: Active | Activity [21]: Active | inhibition [22]: Active | inhibition [23]: Active | inhibition [24]: Active | Activity [25]: Active | Activity [26]: Active | Activity [27]: Active | Activity [28]: Active | Activity [29]: Active | Activity [30]: Non-Toxic | inhibition [31]: Active | Activity [32]: Active | inhibition [33]: Active | Activity [34]: Active
